Results published in PubChem BioAssay (NCI).
Values joined by “and” are separate entries in the source; they are usually repeats but may differ in a detail not shown here. Equal values may be shown once.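 The compound was tested at five concentrations on cells cultured in 96-well plates, with a 48-hour exposure period. GI50 = concentration required for 50% inhibition of growth. TGI marks complete inhibition of growth.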

Columns and labels:
Experiment in all cases: NCI anticancer screen, dose series, 48 h
[1] = test system: MDA-MB-435
[2] = test system: NCI-H460 lung
[3] = test system: NCI-H522 lung
[4] = test system: SF-268 CNS
[5] = test system: SK-MEL-2 melanoma
[6] = test system: SK-MEL-28 melanoma
[7] = test system: SN12C renal
[8] = test system: U251 CNS
[9] = test system: UACC-257 melanoma
[10] = test system: UACC-62 melanoma

SMILES	GI50 [1]	TGI [1] [µM]	GI50 [2] [µM]	TGI [2] [µM]	GI50 [3] [µM]	GI50 [4] [µM]	TGI [4] [µM]	TGI [5]	GI50 [6]	TGI [6] [µM]	GI50 [7]	TGI [7] [µM]	GI50 [8]	TGI [8] [µM]	GI50 [9]	TGI [9]	GI50 [10]	TGI [10] [µM]	TGI [3] [µM]	GI50 [5]
Oc1ccc2ccccc2c1/C=N\Nc1ccccn1	0.752 µM	> 100	0.336	1.75	0.413	0.436	> 100	> 49 µM	8.81 µM	> 100	1.7 µM	> 100	0.427 µM	97.3	1.72 µM	> 100 µM	0.692 µM	13.1		
CCOC1NC(=O)Oc2ccccc21 (centres undefined)		> 100		> 100			> 100	> 100 µM		> 100		> 100		> 100		> 100 µM		> 100	> 100	
COC(=O)c1oc2c(C(=O)/C=C/c3ccc(OC)cc3)c(OCCCN3CCCCC3)ccc2c1C	1.67 µM	3.68	1.54	3.18	1.6	2.24	4.69	7.65 µM	0.85 µM	2.33	1.75 µM	4.86	1.49 µM	2.88	1.32 µM	2.88 µM	1.54 µM	3	3.6	1.87 µM
CN(C)/[N+]([O-])=N/Oc1cc(Nc2ccc(C(=O)O)cc2)c([N+](=O)[O-])cc1[N+](=O)[O-]	19.8 µM	39.2	32.2	> 100	28.5	20.4	40.1	39 µM	30.7 µM	57.5	18.6 µM	33.6	19.3 µM	33.5	19.4 µM	35.5 µM	17.9 µM	32.2	> 100	17.1 µM
O=[N+]([O-])c1ccc2[nH]cc(-c3c4ccccc4cc4[nH]c5ccc([N+](=O)[O-])cc5c34)c2c1	1.8 µM	4.89	2.72	7.7	2.12	2.66	9.57	5.34 µM	1.8 µM	3.71	2.84 µM	7.92	2.81 µM	8.41	2.45 µM	7.13 µM	1.63 µM	3.47	6.1	2.18 µM
C=C1C(=O)O[C@H]2[C@H]1CC/C(COC(=O)CCC(=O)OC/C1=C/CC[C@@]3(C)O[C@H]3[C@H]3OC(=O)C(=C)[C@@H]3CC1)=C\CC[C@@]1(C)O[C@@H]21	1.84 µM	4.65	4.48	17.2	1.43	3.18	14	9.38 µM	1.53 µM	3.97	2.04 µM	6.63	2.78 µM	9.18	1.52 µM	3.39 µM	1.86 µM	6.55	3.07	2.89 µM
COc1cc2c(/C=C3\C(=O)Nc4ccc(Br)cc43)c(Cl)n(C)c2cc1C	0.249 µM	0.802	0.916	4.69	1.66	1.31	8	5.7 µM	0.418 µM	3.49	3.05 µM	11.4	0.675 µM	6.69	7.56 µM	31 µM	0.618 µM	12.9	4.29	1.74 µM
COC(=O)c1ccc2c(c1)nc(-c1ccc(Cl)cc1)n2-c1cc(C(C)(C)C)[nH]n1	1.19 µM	5	2.95	8.81	3.21	3.29	17.8	18.1 µM	3.38 µM	15.5	4.34 µM	27.7	4.13 µM	22.7	4.97 µM	22.9 µM	2.01 µM	7.78	20.3	3.89 µM
COc1ccc(Cc2ccccc2C(=O)O)c2ccccc12		54.8		38.9			87.5	54.5 µM		64.2		> 100		89.3		48.3 µM		29.9	55.4	
O=C(NC(=S)NS(=O)(=O)c1ccc(N2N=C3c4ccccc4CC3C2c2cccs2)cc1)c1ccccc1 (centres undefined)	21.7 µM	60.6	> 100	> 100	20.5	> 100	> 100	> 100 µM	84 µM	> 100	26 µM	96.9	20.1 µM	82.3	42.8 µM	> 100 µM	14.6 µM	36.8	80.9	44 µM
Cc1nc2cc(O)c(O)cc2cc1Oc1ccc(NC(=O)Nc2ccc(Cl)c(Cl)c2)cc1	6.99 µM	> 32.5	6.95	15.8	4.43	8.45	> 32.5	21.1 µM	9 µM	30.1	8.97 µM	30.3	6.58 µM	> 32.5	7.27 µM	21.4 µM	5.67 µM	11.2	12.5	8.83 µM
COc1ccccc1Nc1nc(-c2cc3cccc(C(F)(F)F)c3oc2=O)cs1	0.0297 µM	0.164	0.218	> 39.5	0.0402	0.214	> 100	> 100 µM	1.64 µM	> 100	1.04 µM	> 100	0.11 µM	29.3	1.71 µM	> 100 µM	0.154 µM	> 81.6	1.51	0.262 µM
Cn1c(=O)c(F)c(Nc2ccc(I)cc2F)c2c(=O)n(C[C@@H](O)CO)cnc21	< 0.01 µM and 0.00642 µM	41.1		> 100		10.4	> 82.5	< 0.0252 µM and 0.0277 µM	< 0.01 µM and 0.00301 µM		3.91 µM and 0.487 µM	> 100	0.741 µM and 0.246 µM	> 49.9	< 0.01 µM and 0.00301 µM	< 0.01 µM and 0.0262 µM	< 0.01 µM and 0.00264 µM		> 100	< 0.01 µM and 0.00295 µM
COc1cc(/C=C/C(=O)c2ccc(Nc3nc(Nc4ccc(F)cc4)nc(Nc4ccc(F)cc4)n3)cc2)cc(OC)c1OC	17.1 µM	> 100	7.92	> 100	3.1	41.2	> 100	33.2 µM	26.7 µM	> 100	33.6 µM	> 100	7.92 µM	> 100	7.11 µM	61.1 µM	10.7 µM	41.4	> 100	3.99 µM
CNCCNc1nc2ccccc2c2c(=O)c3cccc(OC)c3sc12	1.67 µM	3.09	1.23	2.72	1.34	1.56	3.33	3.62 µM	1.94 µM	3.62	1.08 µM	2.53	1.24 µM	2.65	1.78 µM	3.67 µM	1.57 µM	2.97	3.1	1.78 µM
COc1ccc(/C=C(/C(=O)N2CCNCC2)c2cc(OC)c(OC)c(OC)c2)cc1O	0.418 µM	1.8	3.42	> 100	2.42	7.23	> 100	> 100 µM	8.84 µM	> 100	7.86 µM	> 100	3.29 µM	> 100	33.7 µM	> 100 µM	3.15 µM	> 100	9.84	3.51 µM
CN(C)CCn1cc(-c2ccc3c(Nc4ccc(CC(=O)Nc5cccc(F)c5)cc4)ncnc3c2)cn1	2.86 µM	> 10	0.087	2.49	1.32	1.43	3.39	> 10 µM	1.61 µM	3.02	1.53 µM	3.64	1.56 µM	3.45	1.84 µM	5.68 µM	6.4 µM	> 10	3.22	> 10 µM
N#C/C(=C/N1CCN(C(=O)c2ccco2)C1=S)C(N)=O	14.6 µM	44.1	3.99	50.7	18.7	11.7	36.4	62.3 µM	15.8 µM	> 100	12 µM	32.2	11.5 µM	46.8	23.3 µM	50.8 µM	14 µM	38.3	44.2	24.4 µM
Cn1c(=O)c(Cc2ccc(F)cc2F)cc2cnc(NC3CCOCC3)nc21	> 25 µM	> 25	> 25	> 25	> 25	> 25	> 25	> 25 µM	> 25 µM	> 25	> 19.8 µM	> 25	> 25 µM	> 25	> 25 µM	> 25 µM	> 23.8 µM	> 25	> 25	> 25 µM
